{
  "source": "patent US20240360215A1",
  "about": "“ANTI-CD19 ANTIBODY IN THE TREATMENT OF CNS LYMPHOMA” (The Regents of the University of California, priority 2023, published 2024)",
  "assay_type_in_all_cases": "in vivo, human",
  "key": {"secondary CNS lymphoma": {"tested_on": "secondary CNS lymphoma", "test": "illustrative treatment of first patient (large-B cell lymphoma, CNS relapse), MRI follow-up", "details": "for severe treatment-related toxicities requiring inpatient management: earlier therapies", "excerpt": "Staging documented concomitant right adrenal involvement. Treatment at an outside institution consisted of six cycles of high-dose methotrexate (HD-MTX) intercalated with rituximab, cyclophosphamide, adriamycin, vincristine, prednisone (R-CHOP) plus intrathecal cytarabine, also six cycles. At 7 months there was multifocal CNS progression and the patient was transferred to a tertiary care center where they received eight cycles of HD-MTX, six doses of temozolomide plus rituximab (MTR), consolidation with etoposide-ara-C (Soussain et al, J. Clin. Oncol 19:[…]; Rubenstein et al, J. Clin Oncol. 31:3061-8, 2013) followed by autologous stem cell transplantation and lenalidomide maintenance. However, at 6 months after transplantation, multifocal CNS progression was again evident on magnetic resonance imaging (MRI). This second relapse was treated with repeat HD-MTX (eight cycles) plus rituximab followed by focal irradiation to a refractory lesion in the right postcentral gyrus, followed by pomalidomide maintenance, resulting in a CNS response duration of nearly 2 years. A third isolated CNS relapse manifested by new multifocal lesions with mild left-to-right midline shift.\nIbrutinib was therefore discontinued and the patient continued on lenalidomide (10 mg/day), now co-administered with intravenous tafasitamab (12 mg/kg), without dexamethasone, following the schedule of the L-MIND study. […] The patient continues twice monthly infusion of tafasitamab, plus lenalidomide days 1-21, and remains in radiographic remission, both in brain and systemically, at 22 months since starting this combination."}, "primary CNS lymphoma": {"tested_on": "primary CNS lymphoma", "test": "illustrative treatment of second patient (multifocal primary CNS lymphoma, large B-cell type), MRI follow-up", "description": "At first relapse they were re-treated with MTR followed by lenalidomide maintenance (5 mg/day) with intermittent high-dose methotrexate/rituximab every 4 months, resulting in sustained disease control on MRI for 3 years. At progression on lenalidomide they were re-challenged with MTR but immediately experienced growth of new lesions in the left frontal lobe, centrum semiovale and splenium of the corpus callosum. […] However, the corpus callosal lesion was resistant. […] (For image, see, Rauschecker et al., Br J Haematol, 201:154-157, first published January 23 2023)."}, "relapsed CNS lymphoma": {"tested_on": "relapsed CNS lymphoma", "test": "phase I trial of tafasitamab plus lenalidomide in relapsed CNS lymphoma (NCT05351593)", "details": "Patient 2; lenalidomide 15 mg/day, off study", "description": "This patient's disease previously progressed on lenalidomide monotherapy at a higher dose of 15 mg/day.\nThe role of tafasitamab in these cases is evident based on prior resistance to lenalidomide, pomalidomide and rituximab.\nThree were treated at the 10 mg lenalidomide dose level and one at the 15 mg lenalidomide dose level. […] The longest response duration was six months.\nIllustrative responses of patient 2 in this study are depicted in FIG. 1."}},
  "note": "Entries after “also recorded” stand apart in the source; their conditions may differ.",
  "data": [
    {"molecule": "Nc1cccc2c1C(=O)N(C1CCC(=O)NC1=O)C2=O", "note": "(stereo not shown) [pomalidomide]", "values": [
      {"measurement": "severe treatment-related toxicities requiring inpatient management", "setting": "secondary CNS lymphoma", "result": "two independent episodes of pneumonia, associated with respiratory syncytial virus and later, aspergillosis"},
      {"measurement": "CNS response duration", "setting": "secondary CNS lymphoma; pomalidomide maintenance after repeat HD-MTX plus rituximab and focal irradiation", "result": "~2", "unit": "years"}
    ]},
    {"molecule": "C=CC(=O)N1CCC[C@@H](n2nc(-c3ccc(Oc4ccccc4)cc3)c3c(N)ncnc32)C1", "note": "[ibrutinib]", "values": [
      {"measurement": "severe treatment-related toxicities requiring inpatient management", "setting": "secondary CNS lymphoma", "result": "pancytopenia, gastrointestinal bleeding, and necrotizing gangrenous cholecystitis"}
    ]},
    {"molecule": "Nc1cccc2c1CN(C1CCC(=O)NC1=O)C2=O", "note": "(stereo not shown) [lenalidomide]", "values": [
      {"measurement": "sustained disease control on MRI", "setting": "primary CNS lymphoma; first relapse, MTR then lenalidomide maintenance 5 mg/day with intermittent high-dose methotrexate/rituximab every 4 months", "result": 3, "unit": "years"},
      {"measurement": "response duration", "setting": "primary CNS lymphoma; lenalidomide maintenance 5 mg/day, days 1-21, after complete response with MTR", "result": 17, "unit": "months"},
      {"measurement": "time to multifocal CNS progression on MRI after transplantation", "setting": "secondary CNS lymphoma; lenalidomide maintenance after autologous stem cell transplantation", "result": 6, "unit": "months"},
      {"measurement": "disease response to earlier lenalidomide monotherapy", "setting": "relapsed CNS lymphoma", "result": "progressed; also recorded: refractory"}
    ]}
  ]
}
